Measurements reported in publication PMC10426190 (Breast Cancer Research : BCR, 2023).

System: E2-induced (ER target) genes in MCF7
Assay: Gene expression analysis by RNA-sequencing in MCF7 with E2 stimulation
Type: cell-based, human
Details: MCF7; 1 nM E2 ± 1 μM compound, 24 h
Description: MCF7 were cultured in hormone deprivation media (with 10% charcoal-stripped FBS) for at least 3 days before assay. Trypsinized cells were seeded in a 12-well plate, stimulated with 1 nM β-estradiol (E2), and treated with/without 1 μM compounds for 24 h. Total RNA was extracted using the TRIzol reagent according to the manufacturer’s protocol. RNA purity and quantification were evaluated using the NanoDrop 2000 spectrophotometer (Thermo Scientific, USA). RNA integrity was assessed using the Agilent 2100 Bioanalyzer (Agilent Technologies, Santa Clara, CA, USA). Then the libraries were constructed using TruSeq Stranded mRNA LT Sample Prep Kit (Illumina, San Diego, CA, USA) according to the manufacturer’s instructions. The transcriptome sequencing and analysis were conducted by OE Biotech Co., Ltd. (Shanghai, China). The libraries were sequenced on an Illumina HiSeq X Ten platform and 150 bp paired-end reads were generated. […] Raw data (raw reads) of FASTq format were firstly processed using Trimmomatic and the low-quality reads were removed to obtain the clean reads. […] The clean reads were mapped to the human genome (GRCh38) using HISAT2 [27]. FPKM [28] of each gene was calculated using Cufflinks, and the read counts of each gene were obtained by HTSeqcount. Differential expression analysis was performed using the DESeq (2012) R package.
MCF7 with hormone-deprived pre-treatment were administrated ER ligands or not present with 1 nM E2 stimulation for 24 h incubation in a 12-well plate. Total mRNA was isolated from treated cells and sequenced on an Illumina HiSeq X Ten platform. FPKM of each gene was calculated using Cufflinks and Differential expression genes analysis by using the DESeq (2012) R package. […] T47D EFM-19 and HCC1500 cells were grown in RPMI media supplemented with 10% charcoal-stripped FBS for 14 days and then treated with ER antagonist (1 μM) or DMSO in the presence E2 (1nM) stimulation for 24 h before RNA isolation and gene expression analysis as described in methods. […] The uteruses were harvested 24 h after the final doses and stained by toluidine blue. Endometrial height was assessed from the basement membrane to the luminal border (scale bar in green lines: 200 μm), Arrows indicate the uterine epithelium (e).

C[C@]12CC[C@@H]3c4ccc(O)cc4C[C@@H](CCCCCCCCC[S+]([O-])CCCC(F)(F)C(F)(F)F)[C@H]3[C@@H]1CC[C@@H]2O (some centres unmarked) [Fulvestrant]
ACTG2 expression: 1.20 FPKM | ADCY1 expression: 6.76 FPKM | AGR3 expression: 2.46 FPKM | AMZ1 expression: 0.77 FPKM | ANLN expression: 18.71 FPKM | ARHGAP36 expression: 0.28 FPKM | ASCL1 expression: 0.54 FPKM | ASF1B expression: 26.04 FPKM | ASMTL-2 expression: 1.41 FPKM | ATAD2 expression: 23.77 FPKM | ATRNL1 expression: 0.05 FPKM | AURKB expression: 19.26 FPKM | BIRC5 expression: 23.46 FPKM | BLM expression: 2.45 FPKM | BMPER expression: 0.11 FPKM | BRCA1 expression: 2.96 FPKM | BRCA2 expression: 2.04 FPKM | BRIP1 expression: 17.34 FPKM | BUB1B expression: 8.27 FPKM | C1orf226 expression: 3.74 FPKM | C5AR2 expression: 0.51 FPKM | CA2 expression: 87.89 FPKM | CA12 expression: 18.70 FPKM | CALCR expression: 0.77 FPKM | CAV1 expression: 5.48 FPKM | CCN5 expression: 22.35 FPKM | CCNA2 expression: 15.79 FPKM | CCNE2 expression: 4.70 FPKM | CD99-2 expression: 1.09 FPKM | CDC6 expression: 4.59 FPKM | CDC25A expression: 1.67 FPKM | CDC45 expression: 5.51 FPKM | CDCA3 expression: 6.06 FPKM | CDCA4 expression: 12.74 FPKM | CDCA5 expression: 11.52 FPKM | CDCA7 expression: 1.84 FPKM | CDH26 expression: 0.21 FPKM | CDK1 expression: 14.26 FPKM | CDT1 expression: 21.42 FPKM | CENPI expression: 2.93 FPKM | CENPU expression: 4.96 FPKM | CHAF1B expression: 1.52 FPKM | CHEK1 expression: 2.32 FPKM | CKS1B expression: 46.61 FPKM | CLSPN expression: 1.80 FPKM | COL12A1 expression: 1.73 FPKM | CXCL12 expression: 1.70 FPKM | DDIAS expression: 2.63 FPKM | DHRSX-2 expression: 0.11 FPKM | DKK1 expression: 26.72 FPKM | DNA2 expression: 2.77 FPKM | DPYSL5 expression: 0.36 FPKM | DSCC1 expression: 4.38 FPKM | DTL expression: 1.38 FPKM | E2F1 expression: 7.00 FPKM | E2F2 expression: 1.27 FPKM | E2F7 expression: 2.55 FPKM | E2F8 expression: 3.66 FPKM | ELOVL2 expression: 3.33 FPKM | EME1 expression: 3.73 FPKM | ERCC6L expression: 1.34 FPKM | ESCO2 expression: 2.24 FPKM | ESPL1 expression: 7.73 FPKM | EXO1 expression: 2.15 FPKM | FAM20A expression: 0.46 FPKM | FAM111B expression: 2.82 FPKM | FANCA expression: 9.92 FPKM | FANCD2 expression: 5.42 FPKM | FANCI expression: 16.43 FPKM | FEN1 expression: 24.35 FPKM | FIGNL1 expression: 2.36 FPKM | FKBP4 expression: 43.52 FPKM | GATA4 expression: 0.00 FPKM | GFRA1 expression: 26.23 FPKM | GINS1 expression: 8.52 FPKM | GINS2 expression: 8.09 FPKM | GJA1 expression: 0.06 FPKM | GLA expression: 31.47 FPKM | GP1BB expression: 0.79 FPKM | GPR68 expression: 0.13 FPKM | GPRIN1 expression: 2.95 FPKM | GREB1 expression: 3.94 FPKM | H2AX expression: 89.38 FPKM | HBB expression: 0.00 FPKM | HELLS expression: 2.89 FPKM | HEY2 expression: 0.43 FPKM | HMGB2 expression: 118.94 FPKM | IGFBP4 expression: 26.82 FPKM | IGSF1 expression: 3.55 FPKM | ITGA2B expression: 0.30 FPKM | KIF11 expression: 11.20 FPKM | KIF18B expression: 4.13 FPKM | KIFC1 expression: 12.36 FPKM | KLK11 expression: 1.75 FPKM | KNL1 expression: 3.41 FPKM | KNTC1 expression: 5.81 FPKM | LHX2 expression: 1.30 FPKM | LIG1 expression: 19.47 FPKM | LMNB1 expression: 49.03 FPKM | MAD2L1 expression: 6.32 FPKM | MCM2 expression: 24.98 FPKM | MCM3 expression: 30.18 FPKM | MCM4 expression: 38.73 FPKM | MCM5 expression: 9.71 FPKM | MCM6 expression: 18.69 FPKM | MCM7 expression: 65.17 FPKM | MCM10 expression: 2.51 FPKM | MELK expression: 9.66 FPKM | MKI67 expression: 19.11 FPKM | MYB expression: 3.86 FPKM | MYBL1 expression: 0.96 FPKM | MYBL2 expression: 29.90 FPKM | NCAPG2 expression: 15.05 FPKM | NCAPG expression: 5.76 FPKM | NPY1R expression: 3.20 FPKM | ORC1 expression: 2.67 FPKM | ORC6 expression: 5.57 FPKM | PAQR4 expression: 9.57 FPKM | PBK expression: 14.24 FPKM | PCLAF expression: 28.12 FPKM | PCNA expression: 48.34 FPKM | PDZK1 expression: 0.47 FPKM | PGR expression: 0.52 FPKM | PKIB expression: 16.14 FPKM | PKMYT1 expression: 9.90 FPKM | POLA1 expression: 2.69 FPKM | POLA2 expression: 4.51 FPKM | POLD1 expression: 11.19 FPKM | POLE2 expression: 2.45 FPKM | POLE expression: 11.56 FPKM | POLQ expression: 2.64 FPKM | PRIM1 expression: 7.88 FPKM | PRSS23 expression: 49.30 FPKM | RAB31 expression: 6.58 FPKM | RAD51AP1 expression: 5.24 FPKM | RAD51 expression: 3.28 FPKM | RAD54L expression: 3.44 FPKM | RAMP3 expression: 0.40 FPKM | RAPGEFL1 expression: 2.18 FPKM | RBL1 expression: 2.06 FPKM | RECQL4 expression: 10.79 FPKM | RERG expression: 2.17 FPKM | RET expression: 1.74 FPKM | RFC2 expression: 14.47 FPKM | RFC3 expression: 3.82 FPKM | RFC4 expression: 10.05 FPKM | RNASEH2A expression: 24.71 FPKM | RRM1 expression: 19.08 FPKM | RRM2 expression: 24.81 FPKM | RUBCNL expression: 0.10 FPKM | SDK2 expression: 0.25 FPKM | SFXN2 expression: 7.17 FPKM | SHCBP1 expression: 2.87 FPKM | SKA3 expression: 4.69 FPKM | SLC6A14 expression: 8.71 FPKM | SMC2 expression: 6.16 FPKM | SPC24 expression: 6.59 FPKM | SPC25 expression: 6.79 FPKM | STC2 expression: 28.34 FPKM | TACC3 expression: 19.06 FPKM | TCF19 expression: 6.28 FPKM | TCOF1 expression: 9.75 FPKM | TGM2 expression: 0.56 FPKM | TICRR expression: 3.71 FPKM | TK1 expression: 42.16 FPKM | TMEM26 expression: 0.84 FPKM | TMEM164 expression: 6.22 FPKM | TONSL expression: 9.44 FPKM | TOP2A expression: 29.21 FPKM | TP73 expression: 1.03 FPKM | TRIP13 expression: 6.92 FPKM | TUBA1B expression: 473.72 FPKM | TUBB expression: 230.78 FPKM | TYMS expression: 25.13 FPKM | UBE2C expression: 32.42 FPKM | UBE2T expression: 45.52 FPKM | UHRF1 expression: 6.71 FPKM | UNG expression: 29.02 FPKM | WDHD1 expression: 4.38 FPKM | WDR62 expression: 5.55 FPKM | WDR76 expression: 1.69 FPKM | XRCC2 expression: 2.48 FPKM | XRCC3 expression: 5.83 FPKM | ZGRF1 expression: 1.75 FPKM | ZNF367 expression: 4.18 FPKM
